Here are results for 30 compounds from patent US20150031668A1, “CHROMAN DERIVATIVES AS TRPM8 INHIBITORS” (AMGEN INC., priority 2013, published 2015).

In general, IC50 refers to the concentration that gives 50% inhibition.

Each structure is given as a SMILES string. Where a name gives a salt, the structure may show the parent alone.

T1 sequence (Q7Z2W7 whole entry): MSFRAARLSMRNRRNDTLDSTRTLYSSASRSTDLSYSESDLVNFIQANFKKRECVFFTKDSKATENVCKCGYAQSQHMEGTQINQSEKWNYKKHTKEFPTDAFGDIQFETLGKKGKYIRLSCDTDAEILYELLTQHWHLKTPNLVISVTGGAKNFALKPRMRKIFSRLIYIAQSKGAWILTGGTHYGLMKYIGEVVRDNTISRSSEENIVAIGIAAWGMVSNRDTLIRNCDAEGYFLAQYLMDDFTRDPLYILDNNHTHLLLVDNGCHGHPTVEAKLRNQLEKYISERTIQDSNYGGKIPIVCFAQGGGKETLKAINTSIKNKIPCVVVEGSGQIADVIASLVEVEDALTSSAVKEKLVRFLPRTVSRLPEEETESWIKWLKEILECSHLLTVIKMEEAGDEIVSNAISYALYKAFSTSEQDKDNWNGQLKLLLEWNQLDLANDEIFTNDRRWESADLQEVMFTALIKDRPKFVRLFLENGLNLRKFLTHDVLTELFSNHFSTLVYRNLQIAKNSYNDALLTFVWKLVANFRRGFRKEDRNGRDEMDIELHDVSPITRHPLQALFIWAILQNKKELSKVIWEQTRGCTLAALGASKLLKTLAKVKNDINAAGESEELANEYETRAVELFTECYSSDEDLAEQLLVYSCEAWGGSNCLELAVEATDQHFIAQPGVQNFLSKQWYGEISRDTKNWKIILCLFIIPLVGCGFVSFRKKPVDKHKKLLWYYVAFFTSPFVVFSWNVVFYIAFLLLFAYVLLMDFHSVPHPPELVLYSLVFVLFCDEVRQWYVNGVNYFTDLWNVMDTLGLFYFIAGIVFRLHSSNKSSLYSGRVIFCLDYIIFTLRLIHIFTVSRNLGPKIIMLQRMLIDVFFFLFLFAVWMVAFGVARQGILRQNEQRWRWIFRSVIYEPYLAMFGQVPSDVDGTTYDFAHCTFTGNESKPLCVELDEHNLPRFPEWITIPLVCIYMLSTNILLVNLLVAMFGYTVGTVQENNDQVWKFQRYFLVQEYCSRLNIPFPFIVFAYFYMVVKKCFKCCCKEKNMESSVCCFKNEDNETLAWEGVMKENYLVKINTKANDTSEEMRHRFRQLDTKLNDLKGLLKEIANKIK

The assay concerns the target T1, human TRPM8 (Homo sapiens, UniProt Q7Z2W7).
T1 construct: expressed in transfected cells; host or cells: Chinese hamster ovary (CHO) cells, T-REx tetracycline-inducible expression system (Invitrogen); co-transfected with pcDNA3.1 aequorin
The assay is described as follows: Luminescence readout assay for measuring intracellular calcium (aequorin, CHO cells expressing human TRPM8; icilin, L-menthol or cold activation). In kind it is cell-based. As to conditions: CHO cells expressing human TRPM8, icilin activation (1 μM), aequorin luminescence; read-out: hTRPM8 IC50. Put shortly:
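Activation was by 1 μM icilin, 100 μM L-menthol (test compound 2.5 min ahead) or cold buffer below 10° C (compound 1 min ahead). Calcium rise measured as aequorin luminescence in CHO cells with tetracycline-inducible human TRPM8.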
A general note: Calcium assays in cells follow changes in intracellular calcium, usually with a dye or a luminescent sensor.
Take `Cc1cc(C(=O)N[C@]2(c3ccc(OC(F)(F)F)c(F)c3)CCOc3cccnc32)ncc1C(=O)O` [Example 333, (S)-6-((4-(3-fluoro-4-(trifluoromethoxy)phenyl)-3,4-dihydro-2H-pyrano[3,2-b]pyridin-4-yl)carbamoyl)-4-methylnicotinic acid]: the IC50 was determined as 0.025 µM. The value for `O=C(Nc1ccccc1C(=O)O)N[C@]1(c2ccc(OC(F)(F)F)c(F)c2)CCOc2cccnc21` [Example 106, (S)-2-(3-(4-(3-fluoro-4-(trifluoromethoxy)phenyl)-3,4-dihydro-2H-pyrano[3,2-b]pyridin-4-yl)ureido)benzoic acid] was 0.039 µM; that for `Cc1cc(C(=O)N[C@]2(c3ccc(OC(F)(F)F)c(F)c3)CCOc3cccnc32)cc(C)c1C(=O)O` [Example 311, (S)-4-((4-(3-fluoro-4-(trifluoro-methoxy)phenyl)-3,4-dihydro-2H-pyrano[3,2-b]pyridin-4-yl)carbamoyl)-2,6-dimethylbenzoic acid] was 0.155 µM. The value for `O=C(N[C@]1(c2ccc(OC(F)(F)F)c(F)c2)CCOc2cccnc21)c1cc(Cl)on1` [Example 200, (S)-5-chloro-N-(4-(3-fluoro-4-(trifluoromethoxy)phenyl)-3,4-dihydro-2H-pyrano[3,2-b]pyridin-4-yl) isoxazole-3-carboxainide] was 0.163 µM; that for `COC(=O)c1ccc(C(=O)N[C@]2(c3ccc(OC(F)(F)F)c(F)c3)CCOc3cccnc32)cc1NC(C)=O` [Example 295, (S)-methyl 2-acetamido-4-((4-(3-fluoro-4-(trifluoromethoxy)phenyl)-3,4-dihydro-2H-pyrano[3,2-b]pyridin-4-yl)carbamoyl)benzoate] was 0.015 µM.

For `Cn1cc(C(=O)O)cc1C(=O)N[C@]1(c2ccc(OC(F)(F)F)c(F)c2)CCOc2cccnc21` [Example 335, (S)-5-((4-(3-fluoro-4-(trifluoromethoxy)phenyl)-3,4-dihydro-2H-pyrano[3,2-b]pyridin-4-yl)carbamoyl)-1-methyl-1H-pyrrole-3-carboxylic acid], the IC50 stood at 0.051 µM. For the compound `Cc1nc(-c2cccc(C(=O)N[C@]3(c4ccc(OC(F)(F)F)cc4)CCOc4cccnc43)c2)no1` [Example 275, (S)-3-(5-methyl-1,2,4-oxadiazol-3-yl)-N-(4-(4-(trifluoromethoxy)phenyl)-3,4-dihydro-2H-pyrano[3,2-b]pyridin-4-yl)benzamide formate], the IC50 turned out to be 0.034 µM.

For the compound `O=C(N[C@]1(c2ccc(C(F)(F)F)cc2)CCOc2cccnc21)c1cccnc1` [Example 48, (S)-N-(4-(4-(trifluoromethyl)phenyl)-3,4-dihydro-2H-pyrano[3,2-b]pyridin-4-yl)nicotinamide], the IC50 was determined as 0.481 µM. For `Cc1nnc(-c2cccc(-c3ccc([C@@]4(NC(=O)c5ccc(F)cc5)CCOc5cccnc54)cc3)c2)o1` [Example 150, (S)-4-fluoro-N-(4-(3′-(5-methyl-1,3,4-oxadiazol-2-yl)-[1,1′-biphenyl]-4-yl)-3,4-dihydro-2H-pyrano[3,2-b]pyridin-4-yl)benzamide], the IC50 stood at 1.19 µM. On to `O=C(N[C@]1(c2ccc(-c3cccc(F)c3O)cc2)CCOc2cccnc21)c1ccc(F)cc1` [Example 134, (S)-4-fluoro-N-(4-(3′-fluoro-2′-hydroxy-[1,1′-biphenyl]-4-yl)-3,4-dihydro-2H-pyrano[3,2-b]pyridin-4-yl)benzamide], for which the IC50 was 0.32 µM. With `O=C(N[C@]1(c2ccc(OC(F)(F)F)cc2)CCOc2cccnc21)c1cc2ccccc2s1` [Example 267, (S)-N-(4-(4-(trifluoromethoxy)phenyl)-3,4-dihydro-2H-pyrano[3,2-b]pyridin-4-yl) benzo[b]thiophene-2-carboxamide formate] the figure was 0.037 µM. The value for `O=S(=O)(N[C@]1(c2ccc(OC(F)(F)F)c(F)c2)CCOc2cccnc21)c1cccnc1` [Example 77, (S)—N-(4-(3-fluoro-4-(trifluoromethoxy)phenyl)-3,4-dihydro-2H-pyrano[3,2-b]pyridin-4-yl)pyridine-3-sulfonamide 2,2,2-trifluoroacetate] was 1.34 µM.

Regarding `COc1cc(-c2ccc([C@@]3(NC(=O)c4ccc(F)cc4)CCOc4cccnc43)cc2)ccn1` [Example 146, (S)-4-fluoro-N-(4-(4-(2-methoxypyridin-4-yl)phenyl)-3,4-dihydro-2H-pyrano[3,2-b]pyridin-4-yl)benzamide], the IC50 turned out to be 0.088 µM. With `Cc1noc(C)c1-c1ccc([C@@]2(NC(=O)c3ccc(F)cc3)CCOc3cccnc32)cc1` [Example 125, (S)-N-(4-(4-(3,5-dimethylisoxazol-4-yl)phenyl)-3,4-dihydro-2H-pyrano[3,2-b]pyridin-4-yl)-4-fluorobenzamide] the figure was 0.429 µM; with `O=C(N[C@]1(c2ccc(C(F)(F)F)cc2)CCOc2cccnc21)c1ccncn1` [Example 35, (S)-N-(4-(4-(trifluoromethyl)phenyl)-3,4-dihydro-2H-pyrano[3,2-b]pyridin-4-yl)pyrimidine-4-carboxamide], 0.2 µM; with `O=C(N[C@]1(c2ccc(Cl)cc2)CCOc2cccnc21)c1ccccc1` (single isomer, unassigned) [Example 14], 0.091 µM.

As to `CC(=O)Nc1cc(C(=O)N[C@]2(c3ccc(OC(F)(F)F)c(F)c3)CCOc3cccnc32)ccc1C(=O)O` [Example 323, (S)-2-acetamido-4-((4-(3-fluoro-4-(trifluoro-methoxy)phenyl)-3,4-dihydro-2H-pyrano[3,2-b]pyridin-4-yl)carbamoyl) benzoic acid], the IC50 amounted to 0.316 µM. In the case of `O=C(N[C@]1(c2ccc(OC(F)(F)F)c(F)c2)CCOc2cccnc21)c1ccc2cc(C(=O)O)[nH]c2c1` [Example 325, (S)-6-((4-(3-fluoro-4-(trifluoro-methoxy)phenyl)-3,4-dihydro-2H-pyrano[3,2-b]pyridin-4-yl)carbamoyl)-1H-indole-2-carboxylic acid], the half-inhibitory concentration (IC50) worked out at 0.118 µM. As for `CCc1cc(C(=O)N[C@]2(c3ccc(OC(F)(F)F)c(F)c3)CCOc3cccnc32)ccc1C(=O)OC` [Example 191, (S)-methyl 2-ethyl-4-((4-(3-fluoro-4-(trifluoromethoxy)phenyl)-3,4-dihydro-2H-pyrano[3,2-b]pyridin-4-yl)carbamoyl) benzoate], the IC50 was 0.011 µM. With `O=C(N[C@]1(c2ccc(OC(F)(F)F)c(F)c2)CC(=O)c2cccnc21)c1ccc(=O)[nH]c1` [Example 165, (S)-N-(7-(3-fluoro-4-(trifluoromethoxy)phenyl)-5-oxo-6,7-dihydro-5H-cyclopenta[b]pyridin-7-yl)-6-oxo-1,6-dihydropyridine-3-carboxamide] the figure was 0.531 µM.

As to `COC(=O)c1cc(C(=O)N[C@]2(c3ccc(OC(F)(F)F)c(F)c3)CCOc3cccnc32)ccc1OC` [Example 182, (S)-methyl 5-((4-(3-fluoro-4-(trifluoromethoxy)phenyl)-3,4-dihydro-2H-pyrano[3,2-b]pyridin-4-yl)carbamoyl)-2-methoxybenzoate], the IC50 came out at 0.036 µM. With `O=C(Nc1ccc(Br)nc1)N[C@]1(c2ccc(OC(F)(F)F)c(F)c2)CCOc2cccnc21` [Example 88, (S)-1-(6-bromopyridin-3-yl)-3-(4-(3-fluoro-4-(trifluoromethoxy)phenyl)-3,4-dihydro-2H-pyrano[3,2-b]pyridin-4-yl)urea] the figure was 0.115 µM; with `O=C(N[C@]1(c2ccc(OC(F)(F)F)cc2)CCOc2cccnc21)c1c[nH]c2ncccc12` [Example 217, (S)-N-(4-(4-(trifluoromethoxy)phenyl)-3,4-dihydro-2H-pyrano[3,2-b]pyridin-4-yl)-1H-pyrrolo[2,3-b] pyridine-3-carboxamide fonnate], 0.046 µM. With `COc1cc(C(=O)N[C@]2(c3ccc(OC(F)(F)F)c(F)c3)CCOc3cccnc32)ccc1C(=O)O` [Example 337, (S)-4-((4-(3-fluoro-4-(trifluoromethoxy)phenyl)-3,4-dihydro-2H-pyrano[3,2-b]pyridin-4-yl)carbamoyl)-2-methoxybenzoic acid] the figure was 0.07 µM; with `Cn1ncc2cc(C(=O)N[C@]3(c4ccc(OC(F)(F)F)c(F)c4)CCOc4cccnc43)ccc21` [Example 53, (S)-N-(4-(3-fluoro-4-(trifluoromethoxy)phenyl)-3,4-dihydro-2H-pyrano[3,2-b]pyridin-4-yl)-1-methyl-1H-indazole-5-carboxamide], 0.015 µM; with `COC(=O)C1CCN(C(=O)N[C@]2(c3ccc(OC(F)(F)F)c(F)c3)CCOc3cccnc32)CC1` [Example 99, (S)-methyl 1-((4-(3-fluoro-4-(trifluoromethoxy)phenyl)-3,4-dihydro-2H-pyrano[3,2-b]pyridin-4-yl)carbamoyl)piperidine-4-carboxylate], 0.106 µM. The value for `Cn1nccc1C(=O)N[C@]1(c2ccc(OC(F)(F)F)cc2)CCOc2cccnc21` [Example 228, (S)-1-methyl-N-(4-(4-(trifluoromethoxy)phenyl)-3,4-dihydro-2H-pyrano[3,2-b]pyridin-4-yl)-lH-pyrazole-5-carboxamide formate_] was 0.105 µM; that for `O=C(N[C@]1(c2ccc(OC(F)(F)F)cc2)CCOc2cccnc21)c1ccc2nsnc2c1` [Example 269, (S)-N-(4-(4-(trifluoromethoxy)phenyl)-3,4-dihydro-2H-pyrano[3,2-b]pyridin-4-yl) benzo[c][1,2,5] thiadiazole-5-carboxamide formate] was 0.024 µM. Regarding `O=C(N[C@]1(c2ccc(OC(F)(F)F)cc2)CCOc2cccnc21)c1cnns1` [Example 214, (S)-N-(4-(4-(trifluoromethoxy)phenyl)-3,4-dihydro-2H-pyrano[3,2-b]pyridin-4-yl)-1,2,3-thiadiazole-5-carboxamide formate], the IC50 is 0.19 µM. As for `COc1ncc(-c2ccc([C@@]3(NC(=O)c4ccc(F)cc4)CCOc4cccnc43)cc2)cn1` [Example 127, (S)-4-fluoro-N-(4-(4-(2-methoxypyrimidin-5-yl)phenyl)-3,4-dihydro-2H-pyrano[3,2-b]pyridin-4-yl)benzamide], the IC50 worked out at 0.336 µM.
